Source: US20240327359A1, “3-ISOXAZOLIDINONE COMPOUND, PREPARATION METHOD, HERBICIDAL COMPOSITION AND APPLICATION THEREOF” (QINGDAO KINGAGROOT CHEMICAL COMPOUND CO., LTD., priority 2021, published 2024)

How the values were obtained:
Format in all cases: in vivo
Abutilon theophrasti = test: Weeding effect in post-emergence stage; conditions: 720 g a.i./ha, 3 weeks after application
Text: (§1) The activity level criteria for plant damage (i.e., growth control rate) are as follows:
(§2) The above growth control rates are fresh weight control rates.
(§3) Monocotyledonous and dicotyledonous weed seeds (Descurainia sophia, Capsella bursa-pastoris, Abutilon theophrasti, Galium aparine, Stellaria media, Lithospermum arvense, Rorippa indica, Alopecurus aequalis, Alopecurus japonicus, Eleusine indica, Beckmannia syzigachne, Sclerochloa dura, Phleum paniculatum, Veronica didyma, Bromus japonicus, Aegilops tauschii, Phalaris arundinacea, Amaranthus retroflexus, Chenopodiaceae, Commelina communis, Sonchus arvensis, Convolvulus arvensis, Cirsium setosum, Solanumnigrum, Acalypha australis, Digitaria sanguinalis, Echinochloa crusgalli, Setaria viridis, Setaria glauca, Leptochloa chinensis, Monochoria vaginalis, Sagittaria trifolia, Scirpus juncoides, Cyperus rotundus, Cyperus iria, Cyperus difformis, Fimbristylis, Portulaca oleracea, Xanthium sibiricum, Pharbitis nil, Conyza Canadensis, etc.) and major crop seeds (wheat, corn, rice, soybean, cotton, oilseed rape, millet, sorghum, potato, sesame, ricinus, etc.) were placed in plastic pots filled with soil, then covered with 0.5-2 cm of soil, allowed to grow in a good greenhouse environment. Two weeks after sowing, the test plants were treated in the 2-3 leaf stage. The tested compounds of the present invention were respectively dissolved in acetone, then added with Tween 80 and 1.5 liter/ha of emulsifiable concentrate of methyl oleate as synergist, diluted with a certain amount of water to obtain a solution of a certain concentration, and sprayed by a spray tower onto the plants. After the application, the plants were cultured for 3 weeks in the greenhouse, and then the experimental results of the weeding were recorded. The doses of the used compounds were 45, 90, 180, 360, 720 g a.i./ha, and the averages were obtained from three replicates.

Alopecurus japonicus = test: Weeding effect in post-emergence stage; conditions: 720 g a.i./ha, 3 weeks after application
Text: as §1, §2, §3

Digitaria sanguinalis = test: Weeding effect in post-emergence stage; conditions: 720 g a.i./ha, 3 weeks after application
Text: as §1, §2, §3

Leptochloa chinensis = test: Weeding effect in post-emergence stage; conditions: 720 g a.i./ha, 3 weeks after application
Text: as §1, §2, §3

corn = test: Pre-emergence stage, crop damage; conditions: 24 g a.i./mu, 2 weeks
Text: as §1, §2
(§4) Monocotyledonous and dicotyledonous weed seeds (Descurainia sophia, Capsella bursa-pastoris, Abutilon theophrasti, Galium aparine, Stellaria media, Lithospermum arvense, Rorippa indica, Alopecurus aequalis, Alopecurus japonicus, Eleusine indica, Beckmannia syzigachne, Sclerochloa dura, Phleum paniculatum, Veronica didyma, Bromus japonicus, Aegilops tauschii, Phalaris arundinacea, Amaranthus retroflexus, Chenopodiaceae, Commelina communis, Sonchus arvensis, Convolvulus arvensis, Cirsium setosum, Solanumnigrum, Acalypha australis, Digitaria sanguinalis, Echinochloa crusgalli, Setaria viridis, Setaria glauca, Leptochloa chinensis, Monochoria vaginalis, Sagittaria trifolia, Scirpus juncoides, Cyperus rotundus, Cyperus iria, Cyperus difformis, Fimbristylis, Portulaca oleracea, Xanthium sibiricum, Pharbitis nil, Conyza Canadensis, etc.) and major crop seeds (wheat, corn, rice, soybean, cotton, oilseed rape, millet, sorghum, potato, sesame, ricinus, etc.) were placed in plastic pots filled with soil, then covered with 0.5-2 cm of soil, allowed to grow in a good greenhouse environment. The test plants were treated on the day of sowing. The tested compounds of the present invention were respectively dissolved in acetone, then added with Tween 80, diluted with a certain amount of water to obtain a solution of a certain concentration, and sprayed by a spray tower onto the plants. After the application, the plants were cultured for 2 weeks in the greenhouse, and then the experimental results of the weeding were recorded. The doses of the used compounds were 3, 6, 12, 24, 48 g ai./mu (1 mu=1/15 ha), and the averages were obtained from three replicates.

cotton = test: Pre-emergence stage, crop damage; conditions: 2 weeks
Text: as §1, §2, §4

peanut = test: Pre-emergence stage, crop damage; conditions: 48 g a.i./mu, 2 weeks
Text: as §1, §2, §4

rice = test: Pre-emergence stage, crop damage; conditions: 2 weeks
Text: as §1, §2, §4

soy bean = test: Pre-emergence stage, crop damage; conditions: 2 weeks
Text: as §1, §2, §4

wheat = test: Pre-emergence stage, crop damage; conditions: 2 weeks
Text: as §1, §2, §4

[1] = tested on: spinach, radish, Chinese cabbage, sesame, rape, cucumber, watermelon, melon, pumpkin, cassava, soybean, kidney bean, cowpea, common bean, hyacinth bean, sponge …; test: Field test, crop safety; conditions: applied after planting and pre-emergence at 300 g a.i./ha
[2] = tested on: Echinochloa crusgalli, Leptochloa chinensis, Digitaria sanguinalis, Descurainia Sophia, Capsella bursa-pastoris, Galium aparine, Stellaria media, Lolium …; test: Field test, weed control; conditions: applied after planting and pre-emergence at 300 g a.i./ha

Q: Which “weeding effect in post-emergence stage, activity level (growth control rate)” value (“weeding effect in post-emergence stage” for short) (Abutilon theophrasti) does the source give for `CC1(C)CON(Cc2ccc(Cl)cc2Br)C1=O` [Compound 1] here?
A: Its value is 5 (Level 5: growth control rate is greater than or equal to 85%).

Q: What about the “weeding effect in post-emergence stage” value (Alopecurus japonicus) of the same molecule?
A: The value was 4 (Level 4: growth control rate is greater than or equal to 60% and less than 85%).

Q: What about the “weeding effect in post-emergence stage” value (Digitaria sanguinalis) of the same molecule?
A: The value was 5 (Level 5: growth control rate is greater than or equal to 85%).

Q: What about the “weeding effect in post-emergence stage” value (Leptochloa chinensis) of the same molecule?
A: The value was 5 (Level 5: growth control rate is greater than or equal to 85%).

Q: What about the “plant damage level (growth control rate) on crop, pre-emergence stage” value (“plant damage level (growth control rate)” below) (corn) of the same molecule?
A: Its value is 0.

Q: What about the “plant damage level (growth control rate)” value (cotton; 12 g a.i./mu) of the same molecule?
A: The value was 0.

Q: What about the “plant damage level (growth control rate)” value (cotton; 24 g a.i./mu) of the same molecule?
A: Its value is 0.

Q: What about the “plant damage level (growth control rate)” value (peanut) of the same molecule?
A: The value was 0.

Q: What about the “plant damage level (growth control rate)” value (rice; 6 g a.i./mu) of the same molecule?
A: Its value is 0.

Q: And the “plant damage level (growth control rate)” value (rice; 12 g a.i./mu)?
A: Its value is 0.

Q: What about the “plant damage level (growth control rate)” value (rice; 24 g a.i./mu) of the same molecule?
A: The value was 1 (Level 1: growth control rate is greater than 0% and less than 15%).

Q: What about the “plant damage level (growth control rate)” value (soy bean; 24 g a.i./mu) of the same molecule?
A: Its value is 0.

Q: What about the “plant damage level (growth control rate)” value (soy bean; 48 g a.i./mu) of the same molecule?
A: Its value is 0.

Q: What about the “plant damage level (growth control rate)” value (wheat; 6 g a.i./mu) of the same molecule?
A: Its value is 0.

Q: What about the “plant damage level (growth control rate)” value (wheat; 12 g a.i./mu) of the same molecule?
A: The value was 0.

Q: What about the “plant damage level (growth control rate)” value (wheat; 24 g a.i./mu) of the same molecule?
A: Its value is 0.

Q: What about the “crop safety in field test” value [1] of the same molecule?
A: The value was “safe”.

Q: And the “control of major weeds in field test” value [2]?
A: The value was “effectively controls”.
